Results reported in patent US4804681A, “Metal complexes having an antineoplastic action and medicaments containing these complexes” (priority 1980, dated 1989).

Experiments:
[1] = test system: ascitic Ehrlich tumors; details: mice; cited from earlier work
[2] = test system: sarcoma 180 tumor cells; assay: Sarcoma 180 tumor model (i.p.), median survival time T/C; format: in vivo, female NMRI mice; details: for T/C (median survival time) / cure rate (cured animals/treated animals): single dose
Experimental: 1. Sarcoma 180 tumor model
In each case about 10^6 sarcoma 180 tumor cells in 0.2 ml of physiological saline solution are transferred intraperitoneally (I.P.) to female NMRI mice which are about 6 weeks old and weigh 18 to 20 g. The tumor is kept in passage in the same mouse strain. The tumor cells are removed from freshly killed animals immediately before transplantation. On inoculation, the animals are randomized. 6 mice are used per dosage. Cisplatin and cyclophosphamide are used as the control substances. The number of control groups (untreated animals) is chosen such that it corresponds to about the square root of the total number of groups. The substances are injected intraperitoneally, in each case 24 hours after the transplantation, as suspensions in customary solubilizing agents, such as Tween® (polyoxyethylene derivatives of sorbitan esters).
The stated dose was administered once at the start of the experiment, as described. The factor T/C given in per cent denotes the percentage increase in median survival time of the treated animals compared with the median survival time of the untreated control animals. In some cases, the cure rate, that is to say the number of cured animals in relation to the number of treated animals, is given in the Table, in parentheses after the factor T/C.
The experiment is discontinued as soon as the median survival time T/C of the treated animals has reached 300% of the median survival time of the untreated animals. In calculating the median survival time, the animals still alive at the end of the experiment are taken as being dead at the end of the experiment.

[3] = test system: testicular tumors, ovarian tumors, oat-cell carcinomas; details: cited from earlier work
[4] = test system: sarcoma 180 cells; assay: subcutaneously transplanted sarcoma 180, intravenous therapy; format: in vivo, female mice; details: 4 mg/kg i.v. as Tween 60 coprecipitate (1:20), twice weekly for 4 weeks, from 2nd week
Experimental: In a further experiment, about 5×10^6 sarcoma 180 cells were subcutaneously transplanted into twelve female mice on day 0. From the 2nd week after the transplantation, six animals were given intravenous therapy with 4 mg/kg of dichlorobis(benzoylacetonato)titanium(IV) as a Tween® 60 coprecipitate (1:20) in aqueous solution, twice weekly for 4 weeks.

[5] = test system: Yoshida sarcoma cells; assay: subcutaneously transplanted Yoshida sarcoma, intravenous therapy; format: in vivo, female SD rats
Experimental: In a further experiment, about 5×10^6 Yoshida sarcoma cells were subcutaneously transplanted into female SD rats on day 0. In the second week, 4 mg/kg of dichlorobis(benzoylacetonato)titanium(IV) as a Tween® 60 coprecipitate (1:20) in aqueous solution were administered intravenously twice. […] The recidives were treated intravenously twice weekly with the original dose for four weeks.

[6] = 4 mg/kg i.v. as Tween 60 coprecipitate (1:20), twice in second week

Compound: titanocene dichloride
- action on ascitic Ehrlich tumors [1]: inhibiting action

Compound: CC(=O)C=C([O][Hf]([Cl])([Cl])[O]C(=CC(C)=O)c1ccccc1)c1ccccc1 [Dichlorobis(benzoylacetonato)hafnium(IV)]
- T/C (median survival time) ([2]; 114 mg/kg i.p.): 130%
- T/C (median survival time) ([2]; 172 mg/kg i.p.): 267%
- T/C (median survival time) ([2]; 246 mg/kg i.p.): 300%

Compound: CC(=O)[CH-]C(=O)c1ccccc1.CC(=O)[CH-]C(=O)c1ccccc1.[Br-].[Br-].[Ti+4] [Dibromobis(benzoylacetonato)titanium(IV)]
- T/C (median survival time) ([2]; 5 mg/kg i.p.): 103%
- cure rate (cured animals/treated animals) ([2]; 5 mg/kg i.p.): 0/6
- T/C (median survival time) ([2]; 20 mg/kg i.p.): 115%
- cure rate (cured animals/treated animals) ([2]; 20 mg/kg i.p.): 0/6
- T/C (median survival time) ([2]; 50 mg/kg i.p.): 288%
- cure rate (cured animals/treated animals) ([2]; 50 mg/kg i.p.): 1/6
- T/C (median survival time) ([2]; 70 mg/kg i.p.): 300%
- cure rate (cured animals/treated animals) ([2]; 70 mg/kg i.p.): 3/6
- T/C (median survival time) ([2]; 100 mg/kg i.p.): 300%
- cure rate (cured animals/treated animals) ([2]; 100 mg/kg i.p.): 3/6
- T/C (median survival time) ([2]; 150 mg/kg i.p.): 300%
- cure rate (cured animals/treated animals) ([2]; 150 mg/kg i.p.): 4/6
- T/C (median survival time) ([2]; 215 mg/kg i.p.): 273%
- cure rate (cured animals/treated animals) ([2]; 215 mg/kg i.p.): 1/6
- T/C (median survival time) ([2]; 315 mg/kg i.p.): 300%
- cure rate (cured animals/treated animals) ([2]; 315 mg/kg i.p.): 5/6

Compound: N.N.[Cl][Pt][Cl] [cisplatin, cis-diamminedichloroplatinum(II), reference compound]
- T/C (median survival time) ([2]; 1 mg/kg i.p.): 112%
- cure rate (cured animals/treated animals) ([2]; 1 mg/kg i.p.): 0/6
- T/C (median survival time) ([2]; 2 mg/kg i.p.): 133%
- cure rate (cured animals/treated animals) ([2]; 2 mg/kg i.p.): 0/6
- T/C (median survival time) ([2]; 3 mg/kg i.p.): 300%
- cure rate (cured animals/treated animals) ([2]; 3 mg/kg i.p.): 2/6
- T/C (median survival time) ([2]; 5 mg/kg i.p.): 300%
- cure rate (cured animals/treated animals) ([2]; 5 mg/kg i.p.): 5/6
- T/C (median survival time) ([2]; 8 mg/kg i.p.): 300%
- cure rate (cured animals/treated animals) ([2]; 8 mg/kg i.p.): 6/6
- T/C (median survival time) ([2]; 13 mg/kg i.p.): 300%
- cure rate (cured animals/treated animals) ([2]; 13 mg/kg i.p.): 6/6
- T/C (median survival time) ([2]; 22 mg/kg i.p.): 42%
- cure rate (cured animals/treated animals) ([2]; 22 mg/kg i.p.): 0/6
- median survival time compared with untreated controls ([2]; about 20 mg/kg): shorter than that of the untreated control animals
- cure of animals ([2]; about 8 to 10 mg/kg): most of the animals are cured
- renal damage and damage to hearing ([3]; after only a single therapeutic dose): found with considerable frequency
- nausea and retching [3]: long-lasting severe nausea
- antitumor activity ([3]; testicular tumors, ovarian tumors, oat-cell carcinomas): extremly potent antitumor agent

Compound: CC(=O)[CH-]C(=O)c1ccccc1.CC(=O)[CH-]C(=O)c1ccccc1.[F-].[F-].[Ti+4] [Difluorobis(benzoylacetonato)titanium(IV)]
- T/C (median survival time) ([2]; 4 mg/kg i.p.): 97%
- cure rate (cured animals/treated animals) ([2]; 4 mg/kg i.p.): 0/6
- T/C (median survival time) ([2]; 15 mg/kg i.p.): 115%
- cure rate (cured animals/treated animals) ([2]; 15 mg/kg i.p.): 0/6
- T/C (median survival time) ([2]; 38 mg/kg i.p.): 209%
- cure rate (cured animals/treated animals) ([2]; 38 mg/kg i.p.): 1/6
- T/C (median survival time) ([2]; 52 mg/kg i.p.): 300%
- cure rate (cured animals/treated animals) ([2]; 52 mg/kg i.p.): 4/6
- T/C (median survival time) ([2]; 75 mg/kg i.p.): 154%
- cure rate (cured animals/treated animals) ([2]; 75 mg/kg i.p.): 0/6
- T/C (median survival time) ([2]; 113 mg/kg i.p.): 300%
- cure rate (cured animals/treated animals) ([2]; 113 mg/kg i.p.): 3/6
- T/C (median survival time) ([2]; 162 mg/kg i.p.): 300%
- cure rate (cured animals/treated animals) ([2]; 162 mg/kg i.p.): 4/6
- T/C (median survival time) ([2]; 238 mg/kg i.p.): 300%
- cure rate (cured animals/treated animals) ([2]; 238 mg/kg i.p.): 2/6

Compound: CC(=O)C=C([O][Zr]([Cl])([Cl])[O]C(=CC(C)=O)c1ccccc1)c1ccccc1 [dichlorobis(benzoylacetonato)zirconium(IV)]
- T/C (median survival time) ([2]; 31 mg/kg i.p.): 234%
- T/C (median survival time) ([2]; 46 mg/kg i.p.): 300%
- T/C (median survival time) ([2]; 68 mg/kg i.p.): 300%
- T/C (median survival time) ([2]; 97 mg/kg i.p.): 300%
- T/C (median survival time) ([2]; 145 mg/kg i.p.): 193%
- T/C (median survival time) ([2]; 208 mg/kg i.p.): 144%

Compound: CC(=O)[CH-]C(=O)c1ccccc1.CC(=O)[CH-]C(=O)c1ccccc1.[Cl-].[Cl-].[Ti+4] [Dichlorobis(benzoylacetonato)titanium(IV)]
- outcome of treatment [4]: cured at the end of therapy
- T/C (median survival time) ([2]; 4 mg/kg i.p.): 118%
- cure rate (cured animals/treated animals) ([2]; 4 mg/kg i.p.): 0/6
- T/C (median survival time) ([2]; 16 mg/kg i.p.): 115%
- cure rate (cured animals/treated animals) ([2]; 16 mg/kg i.p.): 0/6
- T/C (median survival time) ([2]; 41 mg/kg i.p.): 291%
- cure rate (cured animals/treated animals) ([2]; 41 mg/kg i.p.): 2/6
- T/C (median survival time) ([2]; 57 mg/kg i.p.): 179%
- cure rate (cured animals/treated animals) ([2]; 57 mg/kg i.p.): 0/6
- T/C (median survival time) ([2]; 82 mg/kg i.p.): 300%
- cure rate (cured animals/treated animals) ([2]; 82 mg/kg i.p.): 4/6
- T/C (median survival time) ([2]; 123 mg/kg i.p.): 212%
- cure rate (cured animals/treated animals) ([2]; 123 mg/kg i.p.): 1/6
- T/C (median survival time) ([2]; 177 mg/kg i.p.): 251%
- cure rate (cured animals/treated animals) ([2]; 177 mg/kg i.p.): 1/6
- T/C (median survival time) ([2]; 259 mg/kg i.p.): 300%
- cure rate (cured animals/treated animals) ([2]; 259 mg/kg i.p.): 5/6
- recidives after three weeks (plum-sized) [5, 6]: two out of three animals
- tumor regression [5, 6]: The tumor regressed
- cured animals after first treatment ([5]; 4 mg/kg i.v. as Tween 60 coprecipitate (1:20), twice in second week, three animals): One animal was cured
- cured animals after treatment of recidives ([5]; original dose i.v. twice weekly for four weeks, two animals with recidives): Both animals were cured

Compound: CC(=O)C=C([O][Zr]([Br])([Br])[O]C(=CC(C)=O)c1ccccc1)c1ccccc1 [dibromobis(benzoylacetonato)zirconium(IV)]
- T/C (median survival time) ([2]; 54 mg/kg i.p.): 300%
- T/C (median survival time) ([2]; 80 mg/kg i.p.): 300%
- T/C (median survival time) ([2]; 126 mg/kg i.p.): 191%
- T/C (median survival time) ([2]; 172 mg/kg i.p.): 172%
- T/C (median survival time) ([2]; 247 mg/kg i.p.): 184%

Compound: [Cl-].[Cl-].[Hf+4].c1cc[cH-]c1.c1cc[cH-]c1 [hafnocene dichloride]
- action on ascitic Ehrlich tumors [1]: inhibiting action

Compound: [Cl][Zr+2][Cl].c1cc[cH-]c1.c1cc[cH-]c1 [zirconocene dichloride]
- action on ascitic Ehrlich tumors [1]: inhibiting action

Compound: CC(=O)C=C([O][Zr]([Br])([O]C(=CC(C)=O)c1ccccc1)[O]C(=CC(C)=O)c1ccccc1)c1ccccc1 [Bromotris(benzoylacetonato)zirconium(IV)]
- T/C (median survival time) ([2]; 92 mg/kg i.p.): 300%
- T/C (median survival time) ([2]; 209 mg/kg i.p.): 297%
- T/C (median survival time) ([2]; 471 mg/kg i.p.): 187%
